These results are taken from patent US20110301211A1, “ANTAGONISTS OF LYSOPHOSPHATIDIC ACID RECEPTORS” (priority 2008, published 2011).

SMILES strings stand for the structures. Bounds are passed on as bounds.

In one experiment the target is T1, human LPA3 (Homo sapiens, UniProt Q9UBY5).
T1 construct: The full-length cDNA fragment for human LPA3 was obtained by PCR from the vector
T1 sequence (Q9UBY5 1-353): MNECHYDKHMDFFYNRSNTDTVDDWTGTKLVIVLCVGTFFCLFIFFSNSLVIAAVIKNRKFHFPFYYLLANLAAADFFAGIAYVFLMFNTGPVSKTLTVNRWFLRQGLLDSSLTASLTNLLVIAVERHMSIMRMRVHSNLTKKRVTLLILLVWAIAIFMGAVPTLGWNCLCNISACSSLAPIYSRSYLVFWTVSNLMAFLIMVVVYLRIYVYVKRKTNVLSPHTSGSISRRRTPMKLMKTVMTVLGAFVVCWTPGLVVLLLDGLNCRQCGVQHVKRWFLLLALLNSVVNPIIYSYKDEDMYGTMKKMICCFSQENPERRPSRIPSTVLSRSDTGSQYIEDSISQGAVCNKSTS
As to the kind of experiment: HLPA3 Ca Flux assay (LPA3 calcium flux assay). As to conditions: CHO cells expressing human LPA3, 10 nM LPA. The class given is cell-based. As for the experimental part:
A vector containing the human LPA3 receptor cDNA was obtained from the Missouri S&T cDNA Resource Center (www.cdna.org). The full-length cDNA fragment for human LPA3 was obtained by PCR from the vector. The nucleotide sequence of the cloned human LPA3 was determined by sequencing and confirmed to be identical to the published human LPA3 sequence (NCBI accession number NM 012152). The cDNA was cloned into the pcDNA5/FRT expression plasmid and transfected in CHO cells using lipofectamine 2000 (Invitrogen Corp., USA). Clones stably expressing human LPA3 were selected using hygromycin and identified as cells that show Ca-influx in response to LPA.
Human LPA1 or LPA3 expressing CHO cells are seeded at 20,000-45,000 cells per well in a 96-well poly-D-lysine coated plate one or two days before the assay. Prior to the assay, the cells are washed once with PBS and then cultured in serum-free media overnight. On the day of the assay, a calcium indicator dye (Calcium 4, Molecular Devices) in assay buffer (HBSS with Ca^2+ and Mg^2+ and containing 20 mM Hepes and 0.3% fatty-acid free human serum albumin) is added to each well and incubation continued for 1 hour at 37° C. […] Cells are the stimulated by the addition of 10 nM LPA and intracellular Ca^2+ measured using the Flexstation 3 (Molecular Devices). IC50s are determined using Graphpad prism analysis of drug titration curves.

For a further experiment, the target named is T2, human LPA1 (Homo sapiens, UniProt Q92633).
T2 construct: the full-length cDNA for human LPA1 was obtained by PCR of the reverse transcription reaction; expressed in transfected cells
As to the kind of experiment: HLPA1 Ca Flux assay (LPA1 calcium flux assay). Type of experiment: cell-based. As to conditions: CHO cells expressing human LPA1, 10 nM LPA. The method, then: A 1.1 kb cDNA encoding the human LPA1 receptor was cloned from human lung. Human lung RNA (Clontech Laboratories, Inc. USA) was reverse transcribed using the RETROscript kit (Ambion, Inc.) and the full-length cDNA for human LPA1 was obtained by PCR of the reverse transcription reaction. The nucleotide sequence of the cloned human LPA1 was determined by sequencing and confirmed to be identical to the published human LPA1 sequence (An et al. Biochem. Biophys. Res. Commun. 231:619 (1997). The cDNA was cloned into the pcDNA5/FRT expression plasmid and transfected in CHO cells using lipofectamine 2000 (Invitrogen Corp., USA). Clones stably expressing human LPA1 were selected using hygromycin and identified as cells that show Ca-influx in response to LPA.
Human LPA1 or LPA3 expressing CHO cells are seeded at 20,000-45,000 cells per well in a 96-well poly-D-lysine coated plate one or two days before the assay. Prior to the assay, the cells are washed once with PBS and then cultured in serum-free media overnight. On the day of the assay, a calcium indicator dye (Calcium 4, Molecular Devices) in assay buffer (HBSS with Ca^2+ and Mg^2+ and containing 20 mM Hepes and 0.3% fatty-acid free human serum albumin) is added to each well and incubation continued for 1 hour at 37° C. 10 μl of test compounds in 2.5% DMSO are added to the cells and incubation continued at room temperature for 30 minutes. Cells are the stimulated by the addition of 10 nM LPA and intracellular Ca^2+ measured using the Flexstation 3 (Molecular Devices). IC50s are determined using Graphpad prism analysis of drug titration curves.

The next experiment relates to Female CD-1 mice. As to the kind of experiment: Bleomycin-induced lung fibrosis model in mice. Type of experiment: in vivo. As to conditions: acute setting (3 day). The source says:
Female CD-1 mice (Harlan, 25-30 g) are housed 4 per cage, given free access to food and water and allowed to acclimate for at least 7 days prior to test initiation. After the habituation phase, mice are lightly anesthetized with isoflurane (5% in 100% O2) and administered with bleomycin sulfate (0.01-5 U/kg, Henry Schein) via intratracheal instillation (Cuzzocrea S et al. Am J Physiol Lung Cell Mol. Physiol. 2007 May; 292(5):L1095-104. Epub 2007 Jan. 12.). Mice are returned to their cages and monitored daily for the duration of the experiment. Test compound or vehicle is delivered po, ip or sc daily. The route and frequency of dosing is based on previously determined pharmacokinetic properties. […] BALF is analyzed for concentrations of inflammatory, pro-fibrotic and tissue injury biomarkers including transforming growth factor β1, hyaluronic acid, tissue inhibitor of metalloproteinase-1, matrix matelloproteinase-7, connective tissue growth factor and lactate dehydrogenase activity, using commercially available ELISA. […] Total cell counts are then obtained using a Hemavet hematology system (Drew Scientific, Wayne, Pa.) and differential cells counts are determined using Shandon cytospin (Thermo Scientific, Waltham, Mass.). […] The data are plotted using Graphpad prism and statistical differences between groups determined.

The subject of experiment [1] is Female C57BL/6 mice. As to the kind of experiment: Mouse carbon tetrachloride (CCl4)-induced liver fibrosis model. The class given is in vivo. The following applies: for collagen deposition in the liver: as compared to the untreated group. The method, then: Female C57BL/6 mice (Harlan, 20-25 g) housed 4/cage are given free access to food and water and allowed to acclimate for at least 7 days prior to test initiation. After the habituation phase, mice receive CCl4 (0.5-1.0 ml/kg body weight) diluted in corn oil vehicle (100 μL volume) via i.p. injection twice a week for 4-6 weeks. (Higazi, A. A. et al., Clin Exp Immunol. 2008 April; 152(1):163-73. Epub 2008 Feb. 14.). Control mice receive an equivalent volume of corn oil vehicle only. Test compound or vehicle is delivered po, ip or sc daily. At the end of the study (4-6 weeks after first i.p. injection of CCl4), mice are sacrificed using inhaled isoflurane and blood is drawn via cardiac puncture for subsequent analysis of ALT/AST levels. The liver is harvested, and one half of the liver is frozen at −80° C. and the other half is fixed in 10% neutral buffered formalin for histological assessment of liver fibrosis using light microscopy (10× magnification). Liver tissue homogenates are analyzed for collagen levels using Sircol (Biocolor Ltd, UK). Fixed Liver tissue is stained using hematoxylin and eosin (H&E) and trichrome and liver fibrosis is determined by quantitative, computer-assisted densitometry of collagen in liver tissue sections using light microscopy. Plasma and liver tissue lysates are also analyzed for concentrations of inflammatory, pro-fibrotic and tissue injury biomarkers including transforming growth factor β1, hyaluronic acid, tissue inhibitor of metalloproteinase-1, matrix matelloproteinase-7, connective tissue growth factor and lactate dehydrogenase activity, using commercially available ELISA. The resulting data are plotted using Graphpad prism and statistical differences between groups determined.

Experiment [2] relates to Female C57BL/6 mice. As to the kind of experiment: Mouse unilateral ureteral obstruction kidney fibrosis model. The class given is in vivo. The following applies: as compared to the untreated group. As for the experimental part: Female C57BL/6 mice (Harlan, 20-25 g) housed 4/cage will be given free access to food and water and allowed to acclimate for at least 7 days prior to test initiation. After the habituation phase, mice undergo unilateral ureteral obstruction (UUO) surgery or sham to left kidney. Briefly, a longitudinal, upper left incision is performed to expose the left kidney. The renal artery is located and 6/0 silk thread is passed between the artery and the ureter. The thread is looped around the ureter and knotted 3 times insuring full ligation of ureter. The kidney is returned to abdomen, the abdominal muscle is sutured and the skin is stapled closed. Mice are returned to their cages and monitored daily for the duration of the experiment. Test compound or vehicle is delivered po, ip or sc daily. The route and frequency of dosing is based on previously determined pharmacokinetic properties. All animals are sacrificed using inhaled isoflurane 4, 8 or 14 days after UUO surgery. […] Kidney tissue homogenates are analyzed for collagen levels using Sircol (Biocolor Ltd, UK). Fixed kidney tissue is also stained using hematoxylin and eosin (H&E) and trichrome and kidney fibrosis is determined by quantitative, computer-assisted densitometry of collagen in […] tissue sections using light microscopy. […] The resulting data are plotted using Graphpad prism and statistical differences between groups determined.

The test system of experiment [3] is pancreatic cancer cell lines. The following applies: cited from earlier work.
Experiment [4] deals with highly peritoneal metastatic pancreatic cancer cell line. The following applies: cited from earlier work.
For experiment [5] the following is noted: cited from earlier work.
The test system of experiment [6] is Unilateral ureteral obstruction (UUO; animal model of renal fibrosis) mice. The following applies: LPA1 (−/−) mice: renal fibrosis significantly attenuated; cited from earlier work.

As a reminder, the IC50 is the concentration at which inhibition is half-maximal.

T2 sequence (Q92633 whole entry): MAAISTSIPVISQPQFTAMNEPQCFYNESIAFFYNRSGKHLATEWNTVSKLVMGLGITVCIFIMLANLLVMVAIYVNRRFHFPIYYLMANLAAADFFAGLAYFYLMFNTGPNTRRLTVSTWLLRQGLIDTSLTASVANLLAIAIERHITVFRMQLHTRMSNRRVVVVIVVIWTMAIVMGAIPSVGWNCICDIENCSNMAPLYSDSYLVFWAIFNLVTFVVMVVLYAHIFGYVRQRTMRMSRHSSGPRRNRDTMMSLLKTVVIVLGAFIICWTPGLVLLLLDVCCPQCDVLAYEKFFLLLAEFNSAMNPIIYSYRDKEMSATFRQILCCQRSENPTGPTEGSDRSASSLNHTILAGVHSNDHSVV

`COc1ccccc1C(C)OC(=O)Nc1c(C)noc1-c1ccc(-c2ccc(CC(=O)O)cc2)cc1` (centres unmarked) [Compound 6, (4′-{4-[1-(2-Methoxy-phenyl)-ethoxycarbonylamino]-3-methyl-isoxazol-5-yl}-biphenyl-4-yl)-acetic Acid]: at human LPA3, the IC50 lay in the range of 1000 to 50000 nM.
For `COc1ccc(CC(=O)O)cc1-c1ccc(-c2onc(C)c2NC(=O)OC(C)c2ccccc2Cl)cc1` (centres unmarked) [Compound 7, (4′-{4-[1-(2-Chloro-phenyl)-ethoxycarbonylamino]-3-methyl-isoxazol-5-yl}-6-methoxy-biphenyl-3-yl)-acetic Acid], the IC50 on human LPA1 is 1000 to 50000 nM.
`Cc1noc(-c2ccc(-c3cccc(CC(=O)O)c3)cc2)c1NC(=O)OC(C)c1ccccc1Cl` (centres unmarked) [Compound 12, (4′-{4-[1-(2-Chloro-phenyl)-ethoxycarbonylamino]-3-methyl-isoxazol-5-yl}-biphenyl-3-yl)-acetic acid]: the concentration for half-maximal inhibition (IC50) on human LPA3 lay within 300 to 1000 nM.
Take `Cc1noc(-c2ccc(-c3ccc(CC(=O)O)cc3)cc2)c1NC(=O)O[C@H](C)c1ccccc1Cl` [Compound 27, (4′-{4-[(R)-1-(2-Chloro-phenyl)-ethoxycarbonylamino]-3-methyl-isoxazol-5-yl}-biphenyl-4-yl)-acetic acid]: the “tissue inhibitor of metalloproteinase-1 (TIMP-1; pro-fibrotic marker) concentrations in BALF” value in the experiment with Female CD-1 mice was “significantly reduced”. Moreover, the “effect on collagen deposition compared with pirfenidone” value with Female C57BL/6 mice [1] (30 mg/kg, po, qd) is on record as “same effect on collagen deposition as pirfenidone”. Also, the “collagen deposition in the liver” value with Female C57BL/6 mice [1] is given as “significantly reduced”. Besides, the “reduction of kidney fibrosis” value in the experiment with Female C57BL/6 mice [2] is “at least 20%”.
As to `Cc1noc(-c2ccc(-c3ccc(CC(=O)O)cc3)cc2)c1NC(=O)O[C@H](C)c1ccccc1` [Compound 37], in the experiment on Female CD-1 mice, the “tissue inhibitor of metalloproteinase-1 (TIMP-1; pro-fibrotic marker) concentrations in BALF” value is “reduced”. In addition, in the experiment with Female C57BL/6 mice [1], the “collagen deposition in the liver” value is “significantly reduced”. In addition, the “reduction of kidney fibrosis” value in the experiment on Female C57BL/6 mice [2] is on record as 55%.
Consider `COc1ccc(C(C)OC(=O)Nc2c(C)noc2-c2ccc(-c3ccc(CC(=O)O)cc3)cc2)c(F)c1` (centres unmarked) [Compound 40, (4′-{4-[1-(2-Fluoro-4-methoxy-phenyl)-ethoxycarbonylamino]-3-methyl-isoxazol-5-yl}-biphenyl-4-yl)-acetic acid], for which the IC50 on human LPA1 lay within 1000 to 50000 nM.
Turning to `Cc1noc(-c2ccc(-c3cccc(CC(=O)O)c3)cc2)c1NC(=O)O[C@H](C)c1ccccc1` [Compound 43, {4′-[3-Methyl-4-((R)-1-phenyl-ethoxycarbonylamino)-isoxazol-5-yl]-biphenyl-3-yl}-acetic Acid], the IC50 at human LPA1 was in the range of 300 to 1000 nM.
Same read-out and setting: then `Cc1noc(-c2ccc(-c3ccc(CC(=O)NCCS(=O)(=O)O)cc3)cc2)c1NC(=O)O[C@H](C)c1ccccc1` [Compound 67, 2-(2-{4′-[3-Methyl-4-((R)-1-phenyl-ethoxycarbonylamino)-isoxazol-5-yl]-biphenyl-4-yl}-acetylamino)-ethanesulfonic Acid], with below 300 nM.
For `Cc1noc(-c2ccc(CSCCC(=O)O)cc2)c1NC(=O)OC(C)c1ccccc1Cl` (centres unmarked) [Ki16425], the “in vitro migration in response to LPA and peritoneal fluid (ascites) from pancreatic cancer patients” value in experiment [3] is on record as “effectively blocked”. In addition, the “LPA-induced and ascites-induced invasion activity” value in experiment [4] is given as “blocked”. The “metastasis to bone in vivo” value in experiment [5] is “inhibit”. Further, the “development of renal fibrosis in UUO mice” value in experiment [6] was “closely resembled the LPA1 (−/−) mice”.
